The values below come from ChEMBL document CHEMBL5346891, “Overview of the development of HBV small molecule inhibitors” (Eur J Med Chem, 2023).

In general, inhibition refers to how much of the control response was suppressed. What is called EC50 is the concentration giving half of the maximal effect.

The subject of assay [1] is Hepatitis B virus. The assay can be described thus: Antiviral activity against HBV infected in human HepG2.2.15 cells assessed as reduction in HBsAg at 100 ug/ml measured after 7 day by enzyme immunoassay relative to control. The class given is functional. The note with it: HepG2.2.15, 168 h.
For assay [2], the system named is Hepatitis B virus. The assay can be described thus: Antiviral activity against HBV infected in human HepG2.2.15 cells assessed as reduction in HBeAg at 100 ug/ml measured after 7 day by enzyme immunoassay relative to control. The format is functional. The note with it: HepG2.2.15, 168 h.
In assay [3] the test system is Hepatitis B virus. As to the kind of experiment: Antiviral activity against HBV infected in human HepG2.2.15 cells assessed as reduction in HBsAg measured after 7 day by enzyme immunoassay relative to control. The class given is functional, organism-based. The note with it: HepG2.2.15, 168 h.
Assay [4] deals with Hepatitis B virus. As to the kind of experiment: Antiviral activity against HBV stably transfected in human HepDES19 cells assessed as reduction in viral DNA measured after 7 days by q-PCR assay. The class given is functional, organism-based. The settings on record: HepDES19, 168 h.
For assay [5], the system named is Hepatitis B virus. The assay can be described thus: Antiviral activity against HBV infected in human HepG2-NTCP12 cells assessed as reduction in viral DNA measured after 7 days by q-PCR assay. The class given is functional, organism-based. The note with it: HepG2-NTCP12, 168 h.
For assay [6], the system named is Hepatitis B virus. As to the kind of experiment: Antiviral activity against HBV infected in human HepDES19 cells assessed as reduction in cccDNA accumulation by southern blot analysis. The format is functional, organism-based.
Assay [7] relates to Hepatitis B virus. As to the kind of experiment: Antiviral activity against HBV infected in human HepG2.2.15 cells. The class given is functional, organism-based.
Assay [8] relates to Hepatitis B virus. The assay can be described thus: Antiviral activity against drug-resistant HBV infected in human HepG2.2.15 cells. The class given is functional, organism-based.
The test system of assay [9] is Hepatitis B virus. The assay can be described thus: Antiviral activity against HBV infected in human HepDES19 cells assessed as reduction in viral DNA replication measured after 72 hrs by q-PCR assay. The format is functional, organism-based. The settings on record: HepDES19, 72 h.
Assay [10] concerns Hepatitis B virus. As to the kind of experiment: Antiviral activity against HBV infected in human HepG2.2.15 cells assessed as reduction in HBsAg level measured after 144 hrs by ELISA. The format is functional, organism-based. The note with it: HepG2.2.15, 144 h. On the technique in general: In an ELISA, binding on a coated surface is turned into a signal by an enzyme label.
The subject of assay [11] is Hepatitis B virus. The assay can be described thus: Antiviral activity against HBV infected in human HepG2.2.15 cells assessed as reduction in HBeAg level measured after 144 hrs by ELISA. The note with it: HepG2.2.15, 144 h. The class given is functional, organism-based.
The test system of assay [12] is Hepatitis B virus. The assay can be described thus: Antiviral activity against HBV infected in human HepDES19 cells assessed as reduction in viral rcDNA level measured after 7 days by a branched chain DNA hybridization assay. The settings on record: HepDES19, 168 h. The class given is functional, organism-based.
Assay [13] concerns Hepatitis B virus. As to the kind of experiment: Antiviral activity against HBV infected in human HePAD38 cells assessed as reduction in cccDNA level. The format is functional, organism-based.
Assay [14] concerns Hepatitis B virus. As to the kind of experiment: Antiviral activity against HBV infected in human HepG2 cells assessed as reduction in cccDNA transcription level. The format is functional, organism-based.
Assay [15] can be described thus: Modulation of capsid assembly in HBV genotype A assessed as inhibition of viral replication. The format is functional, Hepatitis B virus.
The nature of assay [16]: Modulation of capsid assembly in HBV genotype B assessed as inhibition of viral replication. The class given is functional, Hepatitis B virus.
The nature of assay [17]: Modulation of capsid assembly in HBV genotype C assessed as inhibition of viral replication. The class given is functional, Hepatitis B virus.
A short description of assay [18]: Modulation of capsid assembly in HBV genotype D assessed as inhibition of DNA replication. The format is functional, Hepatitis B virus.
The nature of assay [19]: Modulation of capsid assembly in HBV genotype E assessed as inhibition of viral replication. The class given is functional, Hepatitis B virus.
Assay [20] can be described thus: Modulation of capsid assembly in HBV genotype F assessed as inhibition of viral replication. The class given is functional, Hepatitis B virus.
Assay [21] is described as follows: Modulation of capsid assembly in HBV genotype G assessed as inhibition of viral replication. The class given is functional, Hepatitis B virus.
The nature of assay [22]: Modulation of capsid assembly in HBV genotype H assessed as inhibition of viral replication. The class given is functional, Hepatitis B virus.
In assay [23] the test system is Hepatitis B virus. The assay can be described thus: Antiviral activity against HBV infected in human HepG2.2.15 cells assessed as reduction in cccDNA transcription. The class given is functional, organism-based.
For assay [24], the system named is Hepatitis B virus. As to the kind of experiment: Antiviral activity against HBV infected in human HePAD38 cells assessed as inhibition of viral replication. The class given is functional, organism-based.
The subject of assay [25] is Hepatitis B virus. The assay can be described thus: Antiviral activity against HBV infected in human HepDE19 cells assessed as inhibition of viral replication. The format is functional, organism-based.
For assay [26], the system named is Hepatitis B virus. The assay can be described thus: Antiviral activity against HBV infected in human HepG2.2.15 cells assessed as inhibition of viral replication. The format is functional, organism-based.
Assay [27] relates to Hepatitis B virus. As to the kind of experiment: Antiviral activity against HBV infected in human HepG2.2.15 cells assessed as reduction in viral DNA level. The format is functional, organism-based.
For assay [28], the system named is Hepatitis B virus. The assay can be described thus: Antiviral activity against HBV infected in human Primary hepatocyte cells assessed as reduction in HBeAg level. The class given is functional, organism-based.
Assay [29] concerns Hepatitis B virus. The assay can be described thus: Antiviral activity against HBV infected in human Primary hepatocyte cells assessed as reduction in HBsAg level. The format is functional, organism-based.
Assay [30] deals with Hepatitis B virus. The assay can be described thus: Antiviral activity against HBV infected in human Primary hepatocyte cells assessed as reduction in pgRNA level. The format is functional, organism-based.
Assay [31] deals with Hepatitis B virus. As to the kind of experiment: Antiviral activity against HBV infected in human HepG2-hNTCP cells assessed as reduction in HBeAg level. The format is functional, organism-based.
Assay [32] relates to Hepatitis B virus. The assay can be described thus: Antiviral activity against HBV infected in human HepG2-hNTCP cells assessed as reduction in HBsAg level. The class given is functional, organism-based.
In assay [33] the test system is Hepatitis B virus. The assay can be described thus: Antiviral activity against HBV infected in human HepG2-hNTCP cells assessed as reduction in pgRNA level. The class given is functional, organism-based.

Structures are written as SMILES.

With `O=C(/C=C/c1ccc(O)c(O)c1)O[C@@H]1C[C@](O)(C(=O)O)C[C@@H](OC(=O)/C=C/c2ccc(O)c(O)c2)[C@H]1O`, the inhibition at 100 µg/mL in the assay with Hepatitis B virus [1] worked out at 81%; in the assay with Hepatitis B virus [2] it was 73%. Moreover, the EC50 with Hepatitis B virus [3] stood at 90500 nM.
As for `O=C(/C=C/c1ccc(O)c(O)c1)O[C@@H]1[C@H](O)C[C@@](O)(C(=O)O)C[C@H]1OC(=O)/C=C/c1ccc(O)c(O)c1`, the inhibition at 100 µg/mL with Hepatitis B virus [1] amounted to 90%; with Hepatitis B virus [2] it was 81%. Also, the EC50 in the assay on Hepatitis B virus [3] came out at 31900 nM.
For `CC(=O)c1cc(O)c(=O)c(O)cc1C`, the values for the EC50 in the assay on Hepatitis B virus [4] and in the assay on Hepatitis B virus [5] were 290 nM and 57 nM, respectively.
On to `Cc1nc2cc(NC(=O)c3ccc(S(=O)(=O)N(C)Cc4ccccc4)cc3)ccc2s1`, for which, in the assay on Hepatitis B virus [6], the EC50 turned out to be 3000 nM.
Still for that read-out and setting: as for `O=C(CN(c1cc(C(F)(F)F)ccc1Cl)S(=O)(=O)c1ccccc1)NCc1ccncc1`, the figure is 10000 nM.
For the compound `CCOC(=O)C1=C(CN2CCOCC2)NC(c2nccs2)=N[C@H]1c1ccc(F)cc1Br`, the EC50 with Hepatitis B virus [7] amounted to 1 nM; with Hepatitis B virus [8], 10 nM.
Consider `C/C(=N\OCc1ccccc1)c1c(C)cc(=O)n(O)c1O`, for which the EC50 in the assay on Hepatitis B virus [9] worked out at 540 nM.
With `C=C(C)[C@@H]1CC[C@]2(C(=O)OC)CC[C@]3(COC(=O)c4ccccc4)[C@H](CC[C@@H]4[C@@]5(C)CC[C@H](OC(C)=O)C(C)(C)[C@@H]5CC[C@]43C)[C@H]12`, the EC50 in the assay on Hepatitis B virus [10] and in the assay with Hepatitis B virus [11] was 8900 nM each time.
`COc1ccc(CO/N=C(\C)c2c(C)cc(=O)n(O)c2O)cc1`: the EC50 is 260 nM in the assay on Hepatitis B virus [9] and 400 nM with Hepatitis B virus [12].
`C/C(=N\OCc1ccc(F)cc1)c1c(C)cc(=O)n(O)c1O`: the EC50 turned out to be 110 nM in the assay with Hepatitis B virus [9] and 100 nM in the assay with Hepatitis B virus [12].
Take `C/C(=N\OCc1ccc(C)cc1)c1c(C)cc(=O)n(O)c1O`: in the assay with Hepatitis B virus [9], the EC50 came to 460 nM.
Take `COc1ccccc1CO/N=C(\C)c1c(C)cc(=O)n(O)c1O`: the EC50 in the assay on Hepatitis B virus [9] amounted to 500 nM.
Consider `C/C(=N\OCc1ccccc1F)c1c(C)cc(=O)n(O)c1O`, for which the EC50 in the assay with Hepatitis B virus [9] was 320 nM; in the assay on Hepatitis B virus [12], 330 nM.
Consider `Cc1c(C(=O)C(=O)NCC#N)c(C)n(C)c1C(=O)Nc1ccc(F)c(F)c1`, for which the EC50 in the assay with Hepatitis B virus [13] amounted to 3 nM.
For the compound `Cc1c(O)c2cc(Br)cnc2n(O)c1=O`, the EC50 in the assay with Hepatitis B virus [4] came out at 1500 nM; in the assay with Hepatitis B virus [5] it was 78 nM.
Regarding `CN[C@@H](C)C(=O)N[C@H]1CN(S(=O)(=O)c2cccc(S(=O)(=O)N3CC[C@H]4CC[C@@H](C(=O)NC(c5ccccc5)c5ccccc5)N4C(=O)[C@@H](NC(=O)[C@H](C)NC)C3)c2)CC[C@H]2CC[C@@H](C(=O)NC(c3ccccc3)c3ccccc3)N2C1=O`, in the assay with Hepatitis B virus [14], the EC50 was 20 nM.
For the compound `C[C@H](NS(=O)(=O)c1cc(C(=O)Nc2ccc(F)c(C#N)c2)n(C)c1)C(F)(F)F` [BERSACAPAVIR], the EC50 in assay [15] was determined as 10 nM; in assay [16], 10 nM; in assay [17], 10 nM; in assay [18], 17 nM; in [19], 10 nM; in assay [20], 10 nM. Further, the EC50 in assay [21] and in assay [22] was 10 nM each time.
As to `O=C1OCc2c1cc1ccc3c(c1c2-c1ccc2c(c1)OCO2)OCO3` [HELIOXANTHIN], the EC50 in the assay on Hepatitis B virus [23] was found to be 160 nM.
Turning to `CCOC(=O)C1=C(CN2CCN3C(=O)N(CC(C)(C)C(=O)O)C[C@@H]3C2)N=C(c2nccs2)N[C@H]1c1cccc(F)c1C` [LINVENCORVIR], the EC50 with Hepatitis B virus [24] is 18 nM; in the assay on Hepatitis B virus [25], 27 nM; with Hepatitis B virus [26], 17 nM.
As for `O=C(NCc1cnc(C(F)(F)F)s1)c1ccc2c(c1)NC(=O)c1ccccc1S2(=O)=O` [VEBICORVIR], the EC50 in the assay with Hepatitis B virus [27] came to 173 nM; in the assay with Hepatitis B virus [28], 1840 nM; in the assay with Hepatitis B virus [29], 1840 nM; in the assay on Hepatitis B virus [30] it was 1840 nM; in the assay with Hepatitis B virus [31] it was 1840 nM; in the assay on Hepatitis B virus [32] it was 1840 nM. Moreover, the EC50 in the assay with Hepatitis B virus [33] amounted to 1840 nM.
